Reference: patent publication US20170022171A1, “2,5-DISUBSTITUTED CYCLOPENTANECARBOXYLIC ACIDS AND THEIR USE” (Bayer Pharma Aktiengesellschaft, priority 2014, published 2017)

Experiments:
Assay type in all cases: biochemical
MMP-14 = target: T1, MMP-14 (Homo sapiens, UniProt P50281); experiment: In vitro MMP-14 inhibition test
T1 construct: purchased R&D Systems 918-MP
Text: (§1) The MMP-mediated amidolytic cleavage of a suitable peptide substrate leads to an increase in fluorescent light here too. The signal intensity of the fluorescent light is directly proportional to the enzyme activity. The active concentration of a test compound at which half the enzyme is inhibited (50% signal intensity of the fluorescent light) is reported as the IC50 value.
Recombinant MMP-14 (from R&D Systems, 918-MP) is enzymatically activated in accordance with the manufacturer's instructions using recombinant furin (from R&D Systems, 1503-SE). 1 μl of the test compound to be analysed (as a solution in DMSO, suitable concentrations e.g. 1 nM to 30 μM) is pipetted into 24 μl of activated enzyme (final concentration e.g. 0.5 nM) in reaction buffer (50 mM Tris/HCl pH 7.5, 10 mM CaCl2, 150 mM NaCl, 0.05% Brij®-35) in a white 384-hole microtiter plate (MTP). The enzymatic reaction is started by adding the intramolecularly quenched Mca-Lys-Pro-Leu-Gly-Leu-Dpa(Dnp)-Ala-Arg-NH2 substrate (final concentration, for example, 5 μM; R&D Systems, ES-010), so as to result in a total test volume of 50 The course of the MMP-14 reaction is measured by measuring the fluorescence intensity (excitation 320 nm, emission 410 nm) over a suitable period of time (for example over 120 min at a temperature of 32° C.).

MMP-7 = target: T2, MMP-7 (Homo sapiens, UniProt P09237); experiment: In vitro MMP-7 inhibition test
T2 construct: purchased R&D Systems 907-MP
T2 sequence (P09237 95-267): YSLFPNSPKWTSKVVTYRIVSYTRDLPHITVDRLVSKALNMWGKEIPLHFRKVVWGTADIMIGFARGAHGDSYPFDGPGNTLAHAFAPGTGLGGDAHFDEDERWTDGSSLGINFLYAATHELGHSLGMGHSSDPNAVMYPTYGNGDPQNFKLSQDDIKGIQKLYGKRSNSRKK
Text: as §1
Recombinant MMP-7 (from R&D Systems, 907-MP) is chemically activated in accordance with the manufacturer's instructions using APMA. 1 μl of the test compound to be analysed (as a solution in DMSO, suitable concentrations, for example, 1 nM to 30 μM) is pipetted into 24 μl of activated enzyme (final concentration, for example, 0.5 nM) in reaction buffer (50 mM Tris/HCl pH 7.5, 10 mM CaCl2, 150 mM NaCl, 0.05% Brij®-35) in a white 384-hole microtiter plate (MTP). The enzymatic reaction is started by adding the intramolecularly quenched Mca-Pro-Leu-Gly-Leu-Dpa(Dnp)-Ala-Arg-NH2 substrate (final concentration, for example, 10 μM; R&D Systems, ES-001), so as to result in a total test volume of […] The course of the MMP-7 reaction is measured by measuring the fluorescence intensity (excitation 320 nm, emission 410 nm) over a suitable period of time (for example over 120 min at a temperature of 32° C.).

MMP-8 = target: T3, MMP-8 (Homo sapiens, UniProt P22894); experiment: In vitro MMP-8 inhibition test
T3 construct: purchased R&D Systems 908-MP
Text: as §1
(§2) Recombinant MMP-8 (from R&D Systems, 908-MP) is chemically activated in accordance with the manufacturer's instructions using APMA. 1 μl of the test compound to be analysed (as a solution in DMSO, suitable concentrations, for example, 1 nM to 30 μM) is pipetted into 24 μl of activated enzyme (final concentration, for example, 0.5 nM) in reaction buffer (50 mM Tris/HCl pH 7.5, 10 mM CaCl2, 150 mM NaCl, 0.05% Brij®-35) in a white 384-hole microtiter plate (MTP). The enzymatic reaction is started by adding the intramolecularly quenched Mca-Pro-Leu-Gly-Leu-Dpa(Dnp)-Ala-Arg-NH2 substrate (final concentration, for example, 10 μM; R&D Systems, ES-001), so as to result in a total test volume of 50 μl. The course of the MMP-8 reaction is measured by measuring the fluorescence intensity (excitation 320 nm, emission 410 nm) over a suitable period of time (for example over 120 min at a temperature of 32° C.).

MMP-9 = target: T4, MMP-9 (Homo sapiens, UniProt P14780); experiment: In vitro MMP-9 inhibition test
T4 construct: purchased R&D Systems 911-MP
Text: as §1
as §2, with “MMP-9” for “MMP-8”, “911-MP)” for “908-MP)”, “0.1” for “0.5”

T4 sequence (P14780 107-707 limits assumed): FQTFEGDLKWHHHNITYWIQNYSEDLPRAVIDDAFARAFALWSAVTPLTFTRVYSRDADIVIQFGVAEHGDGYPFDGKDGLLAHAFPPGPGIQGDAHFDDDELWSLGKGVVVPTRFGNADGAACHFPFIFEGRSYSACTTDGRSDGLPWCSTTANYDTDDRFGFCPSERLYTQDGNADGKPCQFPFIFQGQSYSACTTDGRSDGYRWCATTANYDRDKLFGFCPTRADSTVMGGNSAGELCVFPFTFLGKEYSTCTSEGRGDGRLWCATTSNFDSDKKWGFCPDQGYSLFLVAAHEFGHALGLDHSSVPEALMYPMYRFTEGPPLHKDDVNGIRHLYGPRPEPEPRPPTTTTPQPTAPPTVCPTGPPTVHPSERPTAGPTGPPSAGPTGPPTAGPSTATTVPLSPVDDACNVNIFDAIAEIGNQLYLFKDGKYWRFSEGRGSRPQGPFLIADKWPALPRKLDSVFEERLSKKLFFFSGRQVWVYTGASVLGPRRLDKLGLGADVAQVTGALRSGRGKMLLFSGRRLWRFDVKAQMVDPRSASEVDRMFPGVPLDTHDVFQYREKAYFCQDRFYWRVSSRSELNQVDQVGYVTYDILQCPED
T3 sequence (P22894 101-467): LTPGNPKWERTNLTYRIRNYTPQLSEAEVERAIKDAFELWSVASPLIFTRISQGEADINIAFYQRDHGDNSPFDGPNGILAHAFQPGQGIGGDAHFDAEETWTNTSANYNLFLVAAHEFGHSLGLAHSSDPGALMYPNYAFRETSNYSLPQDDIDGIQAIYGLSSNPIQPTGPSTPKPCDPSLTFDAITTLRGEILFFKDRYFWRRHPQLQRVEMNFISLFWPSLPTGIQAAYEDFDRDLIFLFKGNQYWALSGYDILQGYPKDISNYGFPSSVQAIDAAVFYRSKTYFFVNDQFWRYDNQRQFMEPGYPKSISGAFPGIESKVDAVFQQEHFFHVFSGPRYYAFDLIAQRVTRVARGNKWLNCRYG

Row | SMILES | IC50 (MMP-14) | IC50 (MMP-7) | IC50 (MMP-8) | IC50 (MMP-9)
1 | O=C(O)[C@H]1[C@H](Cn2nnc3ccc(C(F)(F)F)cc3c2=O)CC[C@@H]1C(=O)c1ccc(OCCCc2ccccc2)cc1 (racemic) [Example 39, (+/−)-(1RS,2SR,5RS)-2-{[4-Oxo-6-(trifluoromethyl)-1,2,3-benzotriazin-3(4H)-yl]methyl}-5-[4-(3-phenylpropoxy)benzoyl]cyclopentanecarboxylic acid] | 6400 nM | 730 nM | 290 nM | 780 nM
2 | O=C(O)[C@H]1[C@H](Cn2nnc3ccc(C(F)(F)F)cc3c2=O)CC[C@@H]1C(=O)c1ccc(OCC2CCCCC2)cc1 (racemic) [Example 40, (+/−)-(1RS,2RS,5SR)-2-[4-(Cyclohexylmethoxy)benzoyl]-5-{[4-oxo-6-(trifluoromethyl)-1,2,3-benzotriazin-3(4H)-yl]methyl}cyclopentanecarboxylic acid] | 460 nM | 260 nM | 6.3 nM | 170 nM
3 | O=C(O)[C@H]1[C@H](Cn2nnc3ccc(C(F)(F)F)cc3c2=O)CC[C@@H]1C(=O)c1ccc(OCCCC2CCCCC2)cc1 (racemic) [Example 56, (+/−)-(1RS,2RS,5SR)-2-{4-(3-Cyclohexylpropoxy)benzoyl}-5-{[4-oxo-6-(trifluoromethyl)-1,2,3-benzotriazin-3(4H)-yl]methyl}cyclopentanecarboxylic acid] | > 40000 nM | 1400 nM | 580 nM | 4900 nM
4 | O=C(O)[C@H]1[C@H](Cn2nnc3ccc(C(F)(F)F)cc3c2=O)CC[C@@H]1C(=O)c1ccc(SCc2ccc(Cl)c(Cl)c2)cc1 (racemic) [Example 79, (+/−)-(1RS,2RS,5SR)-2-{4-[(3,4-Dichlorobenzyl)sulphanyl]benzoyl}-5-{[4-oxo-6-(trifluoromethyl)-1,2,3-benzotriazin-3(4H)-yl]methyl}cyclopentanecarboxylic acid] | 8700 nM | 1300 nM | 280 nM | 3200 nM
5 | CCCCCSc1ccc(C(=O)[C@H]2CC[C@@H](Cn3nnc4ccc(C(F)(F)F)cc4c3=O)[C@@H]2C(=O)O)cc1 (racemic) [Example 88, (+/−)-(1RS,2SR,5RS)-2-{[4-Oxo-6-(trifluoromethyl)-1,2,3-benzotriazin-3(4H)-yl]methyl}-5-[4-(pentylsulphanyl)benzoyl]cyclopentanecarboxylic acid] | 440 nM | 120 nM | 6.2 nM | 55 nM
6 | O=C(O)[C@@H]1[C@@H](Cn2nnc3ccc(C(F)(F)F)cc3c2=O)CC[C@H]1C(=O)c1ccc(OCc2ccc(F)cc2)cc1 (single isomer, unassigned) [Example 13, (+)-(1RS,2RS,5SR)-2-{4-[(4-Fluorobenzyl)oxy]benzoyl}-5-{[4-oxo-6-(trifluoromethyl)-1,2,3-benzotriazin-3(4H)-yl]methyl}cyclopentanecarboxylic acid] | 150 nM | 120 nM | 0.88 nM | 4.4 nM

The remaining lines, values ahead:

Row | IC50 (MMP-14) | IC50 (MMP-7) | IC50 (MMP-8) | IC50 (MMP-9) | SMILES
7 | 68 nM | 190 nM | 3 nM | 21 nM | Cc1ccc2nnn(C[C@@H]3CC[C@H](C(=O)c4ccc(OCc5ccccc5)cc4)[C@H]3C(=O)O)c(=O)c2c1 (racemic) [Example 91, (+/−)-(1RS,2RS,5SR)-2-[4-(Benzyloxy)benzoyl]-5-[(6-methyl-4-oxo-1,2,3-benzotriazin-3(4H)-yl)methyl]cyclopentanecarboxylic acid]
8 | 870 nM | 1500 nM | 310 nM | 740 nM | Cc1cccc(COc2ccc(C(=O)[C@H]3CC[C@@H](Cn4nnc5ccc(C)cc5c4=O)[C@@H]3C(=O)O)cc2)c1 (racemic) [Example 97, (+/−)-(1RS,2RS,5SR)-2-{4-[(3-Methylbenzyl)oxy]benzoyl}-5-[(6-methyl-4-oxo-1,2,3-benzotriazin-3(4H)-yl)methyl]cyclopentanecarboxylic acid]
9 | 720 nM | 1000 nM | 43 nM | 160 nM | Cc1ccc2nnn(C[C@@H]3CC[C@H](C(=O)c4ccc(OCc5cccc(C(F)(F)F)c5)cc4)[C@H]3C(=O)O)c(=O)c2c1 (racemic) [Example 100, (+/−)-(1RS,2SR,5RS)-2-[(6-Methyl-4-oxo-1,2,3-benzotriazin-3(4H)-yl)methyl]-5-(4-{[3-(trifluoromethyl)benzyl]oxy}benzoyl)cyclopentanecarboxylic acid]
10 | 320 nM | 330 nM | 41 nM | 110 nM | Cc1ccc2nnn(C[C@@H]3CC[C@H](C(=O)c4ccc(OCc5cccc(Cl)c5)cc4)[C@H]3C(=O)O)c(=O)c2c1 (racemic) [Example 103, (+/−)-(1RS,2RS,5SR)-2-{4-[(3-Chlorobenzyl)oxy]benzoyl}-5-[(6-methyl-4-oxo-1,2,3-benzotriazin-3(4H)-yl)methyl]cyclopentanecarboxylic acid]
11 | 180 nM | 190 nM | 11 nM | 76 nM | COc1cccc(COc2ccc(C(=O)[C@H]3CC[C@@H](Cn4nnc5ccc(C)cc5c4=O)[C@@H]3C(=O)O)cc2)c1 (racemic) [Example 106, (+/−)-(1RS,2RS,5SR)-2-{4-[(3-Methoxybenzyl)oxy]benzoyl}-5-[(6-methyl-4-oxo-1,2,3-benzotriazin-3(4H)-yl)methyl]cyclopentanecarboxylic acid]
12 | 670 nM | 1700 nM | 87 nM | 150 nM | Cc1ccc2nnn(C[C@@H]3CC[C@H](C(=O)c4ccc(OCc5cccc(OC(F)(F)F)c5)cc4)[C@H]3C(=O)O)c(=O)c2c1 (racemic) [Example 109, (+/−)-(1RS,2SR,5RS)-2-[(6-Methyl-4-oxo-1,2,3-benzotriazin-3(4H)-yl)methyl]-5-(4-{[3-(trifluoromethoxy)benzyl]oxy}benzoyl)cyclopentanecarboxylic acid]
13 | 490 nM | 390 nM | 11 nM | 94 nM | CCCCCOc1ccc(C(=O)[C@H]2CC[C@@H](Cn3nnc4ccc(C)cc4c3=O)[C@@H]2C(=O)O)cc1 (racemic) [Example 123, (+/−)-(1RS,2SR,5RS)-2-[(6-Methyl-4-oxo-1,2,3-benzotriazin-3(4H)-yl)methyl]-5-[4-(pentyloxy)benzoyl]cyclopentanecarboxylic acid]
